Results taken from patent publication US8084399B2, “Process for screening of a binding amphiphilic peptides specific for hairpin RNA” (priority 2009, dated 2011).
Where no end group is shown, it is not given here. [ ]: non-standard residue; d: D form. Orn = NCCC[C@H](N)C(=O)O; Dab = NCC[C@H](N)C(=O)O; Dap = NC[C@H](N)C(=O)O

Key:
RRE hairpin RNA = test: Fluorescence anisotropy competition with Rev-N-rhodamine probe, binding to RRE hairpin RNA; parameters: species or system HIV; conditions: 20° C., pH 7.4, read-out: Dissociation constant, RRE
Method: (§1) Binding force to each target hairpin RNA (IRES, RRE, TAR and 16S A-site) was measured by fluorescence polarization using alanine scanned peptide library (1b-1h).
(§2) Particularly, […] of each target RNA was prepared at the concentration of 10 mM, which stood at 65° C. for 10 minutes and then cooled down slowly at room temperature, leading to folding. The amphiphilic peptide was prepared respectively at the concentration of […], which were maintained at 0° C. As a probe, rev peptide labeled with rhodamine (Rev-N-rhodamine) emitting […] fluorescence was prepared at the concentration of 10 mM. Buffer was composed of 140 mM NaCl, 5 mM KCl, 1 mM MgCl2, and 20 mM HEPES (N-2-Hydroxyethylpiperazine-N′-2-Ethanesulfonic Acid, pH 7.4). Fluorescence Anisotropy was measured using AMINCO-Bowman Series Luminescence Spectrometer at 20° C. Ten nM of the probe was added in […] of buffer, to which target RNA was added to induce interaction between the probe and the target RNA. At that time, anisotropy value increased. Then, the synthesized peptide competing with the probe for binding site was added thereto with increasing the concentration slowly. Changes of fluorescence polarization were measured until fluorescence polarization reached as low as the beginning. Considering the concentration and amount of the peptide added, binding force to target RNA was calculated. That is, the binding strength between target RNA and peptide was determined according to the following KaleidaGraph. [Peptide]=Kd(Amax−A)/[Kd(A−A0)+1]×[RNA]−Kd(A−A0)^2[Probe]0/(Amax−A)(Amax−A0)
(§3) Herein, [Peptide] indicates the concentration of peptide, [RNA] indicates the concentration of target RNA, and [Probe]0 indicates the concentration of probe. A is the value of fluorescence anisotropy of sample, Amax is the value of totally bound tracer, and A0 is the value of totally free tracer.

TAR hairpin RNA = test: Fluorescence anisotropy competition with Rev-N-rhodamine probe, binding to TAR hairpin RNA; parameters: species or system HIV; conditions: for Kd: fluorescence anisotropy, 20° C., pH 7.4, read-out: Dissociation constant, TAR
Method: as §1, §2, §3

16S ribosomal RNA A-site = test: Fluorescence anisotropy competition with Rev-N-rhodamine probe, binding to 16S A-site; conditions: 20° C., pH 7.4, read-out: Dissociation constant, 16S A-site
Method: as §1, §2, §3

IRES domain IV hairpin = test: Fluorescence anisotropy competition with Rev-N-rhodamine probe, binding to IRES hairpin; parameters: species or system HCV; conditions: for differentiation coefficient (IRES): (mean Kd to other hairpin RNA)/(Kd to one hairpin RNA); for Kd: fluorescence anisotropy, 20° C., pH 7.4, read-out: Dissociation constant, IRES; for binding strength to IRES, in words: compared with the original peptide
Method: as §1, §2, §3

[1] = Circular dichroism (CD), percentage of alpha-helix; assay type: physicochemical; conditions: CD at 20° C., condition not given; for Alpha-helical rate (%), second value of pair: value after the slash; for Alpha-helical rate (%), first value of pair: value before the slash
Method: To investigate alpha-helix of the amphiphilic peptide (1a-1h), circular dichroism (CD) was performed. Particularly, CD was measured at 20° C. by using JASCO model J715 spectropolarimeter. Scanning was performed at 190-250 nm three times (bandwidth: 1 nm, datapitch: 0.5 nm, speed: 100 nm/min), which were averaged to obtain CD data. Spectrum was corrected by measuring background spectrum. CD signal was recorded after modulating thereof with mean residue ellipticity [Q]. Percentage (%) of alpha-helix(fn) was calculated by the following formula. [Q]=Qobs[MRW/(10lc)]
MRW=mean residue weight (dividing molecular weight by the number of peptide bond, l=pathway length (cm), c=concentration (mg/mL). fn=([Q]222−[Q]coil)/([Q]helix−[Q]coil) [Q]helix=−40,000[…]+100t [Q]coil=640−45t
[Q]222=mean residue ellipticity at 222 nm (deg cm2 mol-1), [Q]helix=ellipticity of peptide having complete helical structure, [Q]coil=ellipticity of peptide having complete random coil structure, n=number of amino acid, t=° C.

LAKLLKLLKKLLKLKG [1b, alanine scanned first generation peptide]
Kd (RRE hairpin RNA): 140 nM | Kd (TAR hairpin RNA): 16 nM | Kd (16S ribosomal RNA A-site): 160 nM | differentiation coefficient (IRES) (IRES domain IV hairpin): 2.0 | Kd (IRES domain IV hairpin): 53 nM | Alpha-helical rate (%), second value of pair [1]: 44% | Alpha-helical rate (%), first value of pair [1]: 9%

LKALLKLLKKLLKLKG [1c, alanine scanned first generation peptide]
Kd (RRE hairpin RNA): 56 nM | Kd (TAR hairpin RNA): 87 nM | Kd (16S ribosomal RNA A-site): 92 nM | differentiation coefficient (IRES) (IRES domain IV hairpin): 1.3 | Kd (IRES domain IV hairpin): 62 nM | Alpha-helical rate (%), second value of pair [1]: 42% | Alpha-helical rate (%), first value of pair [1]: 10%

LKKLLALLKKLLKLKG [peptide 1d, alanine scanned first generation peptide]
Kd (RRE hairpin RNA): 150 nM | binding strength to TAR, in words (TAR hairpin RNA; compared with the original peptide): three fold binding strength | Kd (TAR hairpin RNA): 150 nM | Kd (16S ribosomal RNA A-site): 160 nM | differentiation coefficient (IRES) (IRES domain IV hairpin): 1.0 | binding strength to IRES, in words (IRES domain IV hairpin): reduced binding strength | Kd (IRES domain IV hairpin): 150 nM | Alpha-helical rate (%), second value of pair [1]: 47% | Alpha-helical rate (%), first value of pair [1]: 12%

LKKLLDabLLKKLLDapLAG (LKKLL[Dab]LLKKLL[Dap]LAG-NH2; N-terminus assumed; SMILES CC(C)C[C@H](NC(=O)[C@H](CN)NC(=O)[C@H](CC(C)C)NC(=O)[C@H](CC(C)C)NC(=O)[C@H](CCCCN)NC(=O)[C@H](CCCCN)NC(=O)[C@H](CC(C)C)NC(=O)[C@H](CC(C)C)NC(=O)[C@H](CCN)NC(=O)[C@H](CC(C)C)NC(=O)[C@H](CC(C)C)NC(=O)[C@H](CCCCN)NC(=O)[C@H](CCCCN)NC(=O)[C@@H](N)CC(C)C)C(=O)N[C@@H](C)C(=O)NCC(N)=O) [2l, second generation peptide, hydrophilic face modified]
Kd (RRE hairpin RNA): 14 nM | Kd (TAR hairpin RNA): 16 nM | Kd (16S ribosomal RNA A-site): 14 nM | differentiation coefficient (IRES) (IRES domain IV hairpin): 13 | Kd (IRES domain IV hairpin): 1.1 nM | Alpha-helical rate (%), second value of pair [1]: 50% | Alpha-helical rate (%), first value of pair [1]: 40%

LKKLLDabLLKKLLKLAG (LKKLL[Dab]LLKKLLKLAG-NH2; N-terminus assumed; SMILES CC(C)C[C@H](NC(=O)[C@H](CCCCN)NC(=O)[C@H](CC(C)C)NC(=O)[C@H](CC(C)C)NC(=O)[C@H](CCCCN)NC(=O)[C@H](CCCCN)NC(=O)[C@H](CC(C)C)NC(=O)[C@H](CC(C)C)NC(=O)[C@H](CCN)NC(=O)[C@H](CC(C)C)NC(=O)[C@H](CC(C)C)NC(=O)[C@H](CCCCN)NC(=O)[C@H](CCCCN)NC(=O)[C@@H](N)CC(C)C)C(=O)N[C@@H](C)C(=O)NCC(N)=O) [2b, second generation peptide, hydrophilic face modified]
Kd (RRE hairpin RNA): 10 nM | Kd (TAR hairpin RNA): 7.3 nM | Kd (16S ribosomal RNA A-site): 13 nM | differentiation coefficient (IRES) (IRES domain IV hairpin): 6.4 | Kd (IRES domain IV hairpin): 1.6 nM | Alpha-helical rate (%), second value of pair [1]: 63% | Alpha-helical rate (%), first value of pair [1]: 23%

LKKLLDabLLKKLLKWAG (LKKLL[Dab]LLKKLLKWAG-NH2; N-terminus assumed; SMILES CC(C)C[C@H](NC(=O)[C@H](CC(C)C)NC(=O)[C@H](CCCCN)NC(=O)[C@H](CCCCN)NC(=O)[C@H](CC(C)C)NC(=O)[C@H](CC(C)C)NC(=O)[C@H](CCN)NC(=O)[C@H](CC(C)C)NC(=O)[C@H](CC(C)C)NC(=O)[C@H](CCCCN)NC(=O)[C@H](CCCCN)NC(=O)[C@@H](N)CC(C)C)C(=O)N[C@@H](CCCCN)C(=O)N[C@@H](Cc1c[nH]c2ccccc12)C(=O)N[C@@H](C)C(=O)NCC(N)=O) [3e, third generation peptide, both faces modified]
Kd (RRE hairpin RNA): 22 nM | Kd (TAR hairpin RNA): 14 nM | Kd (16S ribosomal RNA A-site): 16 nM | differentiation coefficient (IRES) (IRES domain IV hairpin): 28 | Kd (IRES domain IV hairpin): 0.62 nM | Alpha-helical rate (%), second value of pair [1]: 45% | Alpha-helical rate (%), first value of pair [1]: 39%

LKKLLDabLLOrnKLLDapLAG (LKKLL[Dab]LL[Orn]KLL[Dap]LAG-NH2; N-terminus assumed; SMILES CC(C)C[C@H](NC(=O)[C@H](CN)NC(=O)[C@H](CC(C)C)NC(=O)[C@H](CC(C)C)NC(=O)[C@H](CCCCN)NC(=O)[C@H](CCCN)NC(=O)[C@H](CC(C)C)NC(=O)[C@H](CC(C)C)NC(=O)[C@H](CCN)NC(=O)[C@H](CC(C)C)NC(=O)[C@H](CC(C)C)NC(=O)[C@H](CCCCN)NC(=O)[C@H](CCCCN)NC(=O)[C@@H](N)CC(C)C)C(=O)N[C@@H](C)C(=O)NCC(N)=O) [2m, second generation peptide, hydrophilic face modified]
Kd (RRE hairpin RNA): 19 nM | Kd (TAR hairpin RNA): 31 nM | Kd (16S ribosomal RNA A-site): 13 nM | differentiation coefficient (IRES) (IRES domain IV hairpin): 4.9 | Kd (IRES domain IV hairpin): 4.3 nM | Alpha-helical rate (%), second value of pair [1]: 69% | Alpha-helical rate (%), first value of pair [1]: 49%

LKKLLDabLLOrnKLLKLAG (LKKLL[Dab]LL[Orn]KLLKLAG-NH2; N-terminus assumed; SMILES CC(C)C[C@H](NC(=O)[C@H](CCCCN)NC(=O)[C@H](CC(C)C)NC(=O)[C@H](CC(C)C)NC(=O)[C@H](CCCCN)NC(=O)[C@H](CCCN)NC(=O)[C@H](CC(C)C)NC(=O)[C@H](CC(C)C)NC(=O)[C@H](CCN)NC(=O)[C@H](CC(C)C)NC(=O)[C@H](CC(C)C)NC(=O)[C@H](CCCCN)NC(=O)[C@H](CCCCN)NC(=O)[C@@H](N)CC(C)C)C(=O)N[C@@H](C)C(=O)NCC(N)=O) [2j, second generation peptide, hydrophilic face modified]
Kd (RRE hairpin RNA): 21 nM | Kd (TAR hairpin RNA): 10 nM | Kd (16S ribosomal RNA A-site): 14 nM | differentiation coefficient (IRES) (IRES domain IV hairpin): 6.3 | Kd (IRES domain IV hairpin): 2.4 nM | Alpha-helical rate (%), second value of pair [1]: 57% | Alpha-helical rate (%), first value of pair [1]: 49%

LKKLLDabWLKKLLKLAG (LKKLL[Dab]WLKKLLKLAG-NH2; N-terminus assumed; SMILES CC(C)C[C@H](NC(=O)[C@H](CCCCN)NC(=O)[C@H](CC(C)C)NC(=O)[C@H](CC(C)C)NC(=O)[C@H](CCCCN)NC(=O)[C@H](CCCCN)NC(=O)[C@H](CC(C)C)NC(=O)[C@H](Cc1c[nH]c2ccccc12)NC(=O)[C@H](CCN)NC(=O)[C@H](CC(C)C)NC(=O)[C@H](CC(C)C)NC(=O)[C@H](CCCCN)NC(=O)[C@H](CCCCN)NC(=O)[C@@H](N)CC(C)C)C(=O)N[C@@H](C)C(=O)NCC(N)=O) [3a, third generation peptide, both faces modified]
Kd (RRE hairpin RNA): 22 nM | Kd (TAR hairpin RNA): 19 nM | Kd (16S ribosomal RNA A-site): 13 nM | differentiation coefficient (IRES) (IRES domain IV hairpin): 10 | Kd (IRES domain IV hairpin): 1.8 nM | Alpha-helical rate (%), second value of pair [1]: 55% | Alpha-helical rate (%), first value of pair [1]: 29%

LKKLLDapLLKKLLKLAG (LKKLL[Dap]LLKKLLKLAG-NH2; N-terminus assumed; SMILES CC(C)C[C@H](NC(=O)[C@H](CCCCN)NC(=O)[C@H](CC(C)C)NC(=O)[C@H](CC(C)C)NC(=O)[C@H](CCCCN)NC(=O)[C@H](CCCCN)NC(=O)[C@H](CC(C)C)NC(=O)[C@H](CC(C)C)NC(=O)[C@H](CN)NC(=O)[C@H](CC(C)C)NC(=O)[C@H](CC(C)C)NC(=O)[C@H](CCCCN)NC(=O)[C@H](CCCCN)NC(=O)[C@@H](N)CC(C)C)C(=O)N[C@@H](C)C(=O)NCC(N)=O) [2c, second generation peptide, hydrophilic face modified]
Kd (RRE hairpin RNA): 9.6 nM | Kd (TAR hairpin RNA): 5.7 nM | Kd (16S ribosomal RNA A-site): 12 nM | differentiation coefficient (IRES) (IRES domain IV hairpin): 2.4 | Kd (IRES domain IV hairpin): 3.8 nM | Alpha-helical rate (%), second value of pair [1]: 61% | Alpha-helical rate (%), first value of pair [1]: 26%

LKKLLKLLAKLLKLKG [1e, alanine scanned first generation peptide]
Kd (RRE hairpin RNA): 130 nM | Kd (TAR hairpin RNA): 74 nM | Kd (16S ribosomal RNA A-site): 180 nM | differentiation coefficient (IRES) (IRES domain IV hairpin): 1.1 | binding strength to IRES, in words (IRES domain IV hairpin): reduced binding strength | Kd (IRES domain IV hairpin): 120 nM | Alpha-helical rate (%), second value of pair [1]: 43% | Alpha-helical rate (%), first value of pair [1]: 12%
